This note sets out measurements from ChEMBL document CHEMBL1201862, “PubChem BioAssay data set” (2004).

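Five concentrations, 48 hours, 96-well plates. GI50 is the concentration that inhibits growth by half.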 Calls of active or inactive are those of the source. Cut-off read from the data, not from the text of the source: active = GI50 up to about 1.1 µM and inactive = higher.

Test systems include A549; ACHN; COLO 205; HOP-62; HOP-92; HT-29; Hs-578T; LOX IMVI; M14; MCF7; MDA-N; NCI-H23; NCI-H522; OVCAR-8; RPMI-8226; SK-MEL-28; SNB-75; UACC-257; UACC-62.
Holding throughout (experiment): NCI-60 cell line screen, 48 h

With `CCc1oc2ccccc2c1C(=O)c1cc(Br)c(O)c(Br)c1` [BENZBROMARONE], the GI50 with A549 was 34.8 µM (inactive); in the assay on ACHN, 17.5 µM (inactive); in the assay with COLO 205, 20.9 µM (inactive); with HOP-62, 34.3 µM (inactive); in the assay with HOP-92, 24.1 µM (inactive); in the assay on HT-29, 30.3 µM (inactive). Also, the GI50 in the assay on Hs-578T was 24.5 µM (inactive); in the assay on LOX IMVI it was 24.7 µM (inactive); in the assay on M14, 28.9 µM (inactive); in the assay on MCF7, 23.7 µM (inactive); in the assay on MDA-N, 30.2 µM (inactive); in the assay on NCI-H23, 24.5 µM (inactive). Also, the GI50 with NCI-H522 is 19.9 µM (inactive); with OVCAR-8, 32.7 µM (inactive); in the assay with RPMI-8226 it was 29 µM (inactive); with SK-MEL-28, 41.4 µM (inactive); in the assay with SNB-75, 18.9 µM (inactive); in the assay with UACC-257 it was 19.3 µM (inactive). Besides, in the assay on UACC-62, the GI50 was 16.9 µM (inactive).
On to `Cc1cc(-c2nc3ccc(F)cc3s2)ccc1N`, for which the GI50 in the assay with A549 was 42.5 µM (inactive); in the assay on ACHN, 68.2 µM (inactive); in the assay on COLO 205 it was > 100 µM (inactive); in the assay on HOP-62, > 100 µM (inactive); in the assay with HOP-92 it was > 100 µM (inactive); with HT-29, > 100 µM (inactive). In addition, the GI50 with Hs-578T is 37.2 µM (inactive); in the assay on LOX IMVI, > 100 µM (inactive); in the assay on M14, > 100 µM (inactive); in the assay with MCF7, < 0.01 µM (active); with MDA-N, > 100 µM (inactive); in the assay on NCI-H23 it was > 100 µM (inactive). Moreover, the GI50 in the assay with NCI-H522 is 21.5 µM (inactive); in the assay on OVCAR-8, > 100 µM (inactive); with RPMI-8226 it was 5.6 µM (inactive); with SK-MEL-28, > 100 µM (inactive); with SNB-75 it was > 100 µM (inactive); in the assay on UACC-257, > 100 µM (inactive). For the same compound, in the assay on UACC-62, the GI50 was 89.1 µM (inactive).
As for `CCn1c2ccc(C(=O)CCCN3CCCCC3)cc2c2cc(C(=O)CCCN3CCCCC3)ccc21`, the GI50 with A549 was 1.81 µM (inactive); in the assay on ACHN, 1.74 µM (inactive); in the assay with COLO 205, 2.67 µM (inactive); with HOP-62, 3.3 µM (inactive); with HOP-92, 10.4 µM (inactive); with HT-29, 1.39 µM (inactive). The GI50 in the assay with Hs-578T was 2.44 µM (inactive); in the assay on LOX IMVI, 1.86 µM (inactive); with M14, 2.04 µM (inactive); in the assay with MCF7, 1.58 µM (inactive); in the assay on MDA-N it was 2.22 µM (inactive); in the assay on NCI-H23 it was 2.13 µM (inactive). Moreover, the GI50 with NCI-H522 was 1.56 µM (inactive); in the assay on OVCAR-8 it was 1.44 µM (inactive); with RPMI-8226, 1.75 µM (inactive); with SK-MEL-28 it was 19.3 µM (inactive); in the assay with SNB-75, 2.24 µM (inactive); in the assay on UACC-257 it was 1.9 µM (inactive). Moreover, the GI50 with UACC-62 is 23 µM (inactive).
For `CCOC(=O)/C(=C\NCC(O)c1ccccc1)c1nc2ccccc2[nH]1` (configuration not stated), the GI50 in the assay with A549 was 33.7 µM (inactive); with ACHN, 11 µM (inactive); in the assay with COLO 205 it was 16.7 µM (inactive); with HOP-62, 43.5 µM (inactive); with HOP-92 it was 22.1 µM (inactive); in the assay on HT-29, 21.5 µM (inactive). Moreover, the GI50 in the assay on Hs-578T is 20.5 µM (inactive); with LOX IMVI it was 19.5 µM (inactive); in the assay on M14, 30.4 µM (inactive); in the assay on MCF7, 18.7 µM (inactive); in the assay with MDA-N, 27.5 µM (inactive); in the assay with NCI-H23, 18.1 µM (inactive). For the same compound, the GI50 with NCI-H522 is 17.5 µM (inactive); in the assay on OVCAR-8, 23.2 µM (inactive); in the assay on RPMI-8226, 11.3 µM (inactive); with SK-MEL-28 it was 17.2 µM (inactive); in the assay with SNB-75 it was 24.2 µM (inactive); with UACC-257, 19.6 µM (inactive). Also, the GI50 with UACC-62 was 14.2 µM (inactive).
With `CC(C)OP(=O)(OC(C)C)C(C)(C)O`, the GI50 with A549, in the assay with ACHN, in the assay on COLO 205, in the assay with HOP-62, in the assay on HOP-92 and with HT-29 was > 100 µM (inactive) each time. For the same compound, the GI50 in the assay on Hs-578T, in the assay on LOX IMVI, with M14, in the assay with MCF7, in the assay on MDA-N and in the assay with NCI-H23 was > 100 µM (inactive) throughout. Also, the GI50 with NCI-H522, in the assay on OVCAR-8, in the assay with RPMI-8226, in the assay on SK-MEL-28, with SNB-75 and with UACC-257 was > 100 µM (inactive) in each case. Also, the GI50 in the assay with UACC-62 is > 100 µM (inactive).
As to `OC(CC(CC(O)(C(F)(F)F)C(F)(F)F)=NN=C(CC(O)(C(F)(F)F)C(F)(F)F)CC(O)(C(F)(F)F)C(F)(F)F)(C(F)(F)F)C(F)(F)F`, the GI50 in the assay with A549, in the assay with ACHN, with COLO 205, in the assay on HOP-62, with HOP-92 and in the assay with HT-29 was > 10 µM (inactive) each time. For the same compound, the GI50 in the assay with Hs-578T, in the assay on LOX IMVI, in the assay on M14, in the assay on MCF7, in the assay on MDA-N and with NCI-H23 was > 10 µM (inactive) in each case. Further, the GI50 in the assay on NCI-H522, in the assay on OVCAR-8, with RPMI-8226, with SK-MEL-28, with SNB-75 and in the assay with UACC-257 was > 10 µM (inactive) each time. Further, the GI50 in the assay with UACC-62 was > 10 µM (inactive).
As to `O=c1[nH]nc(-c2ccccc2)n1/N=C/c1ccc([N+](=O)[O-])o1`, the GI50 is 7.66 µM (inactive) in the assay on A549; 2.42 µM (inactive) in the assay on ACHN; 4.15 µM (inactive) with COLO 205; 6.11 µM (inactive) in the assay on HOP-62; 6.71 µM (inactive) in the assay on HOP-92; 2.49 µM (inactive) in the assay on HT-29. In addition, the GI50 in the assay on Hs-578T is 27.2 µM (inactive); in the assay with LOX IMVI it was 3.34 µM (inactive); in the assay with M14, 4.14 µM (inactive); in the assay on MCF7 it was 2.04 µM (inactive); in the assay with MDA-N, 3.25 µM (inactive); in the assay with NCI-H23, 5.9 µM (inactive). The GI50 with NCI-H522 is 1.32 µM (inactive); with OVCAR-8, 3.22 µM (inactive); in the assay on RPMI-8226, 2.04 µM (inactive); with SK-MEL-28, 4.92 µM (inactive); in the assay with SNB-75, 16 µM (inactive); with UACC-257, 4.92 µM (inactive). For the same compound, the GI50 in the assay with UACC-62 is 5.21 µM (inactive).
For `O=C(NNc1ccnc2cc(Cl)ccc12)/C(=C\c1ccccc1Cl)NC(=O)c1ccccc1`, the GI50 is 38.2 µM (inactive) in the assay with A549; 25.4 µM (inactive) with ACHN; 25.2 µM (inactive) in the assay on COLO 205; 19.2 µM (inactive) in the assay with HOP-62; 35.6 µM (inactive) in the assay on HOP-92; 47.8 µM (inactive) with HT-29. In addition, the GI50 in the assay on Hs-578T is 32.5 µM (inactive); in the assay with LOX IMVI, 17.4 µM (inactive); with M14, 31.3 µM (inactive); with MCF7, 15.5 µM (inactive); in the assay on MDA-N it was 37.3 µM (inactive); in the assay with NCI-H23, 54.7 µM (inactive). In addition, the GI50 was 18.5 µM (inactive) with NCI-H522; 20 µM (inactive) with OVCAR-8; 29.2 µM (inactive) in the assay on RPMI-8226; > 100 µM (inactive) in the assay with SK-MEL-28; 39.3 µM (inactive) with SNB-75; 34.1 µM (inactive) in the assay with UACC-257. The GI50 with UACC-62 was 21 µM (inactive).
